Measurements as given in ChEMBL document CHEMBL4422609, “Overview of the Development of Glutaminase Inhibitors: Achievements and Future Directions” (J Med Chem, 2019).
Values belong to the compound of their own block, whether it stands above or below them.

Tests used:
[1] = Inhibition of GAC (unknown origin); design: species or system Homo sapiens
[2] = Inhibition of KGA (unknown origin) using glutamine as substrate preincubated for 20 mins followed by substrate addition and measured after 2 hrs; design: species or system Homo sapiens
[3] = Inhibition of KGA (unknown origin); design: species or system Homo sapiens
NCI-H2122 [4] = experiment: Antitumor activity against human NCI-H2122 cells harboring KRAS mutant xenografted in mouse assessed as tumor growth inhibition relative to control; format: functional
RPMI-8226 [5] = experiment: Antitumor activity against human RPMI8226 cells xenografted in mouse assessed as tumor growth inhibition at 200 mg/kg, po administered BID relative to control; format: functional; settings: RPMI-8226, po, read-out: TGI
NCI-H1650 [6] = experiment: Antitumor activity against human NCI-H1650 cells harboring EGFR mutant xenografted in mouse assessed as tumor growth inhibition relative to control; format: functional
NCI-H1650 [7] = experiment: Antitumor activity against human NCI-H1650 cells harboring EGFR mutant xenografted in mouse assessed as tumor growth inhibition co-treated with erlotinib relative to control; format: functional
[8] = Antiproliferative activity against human MDA-MB-231met2 cells; format: functional, cell-based
RPMI-8226 [9] = experiment: Antitumor activity against human RPMI8226 cells xenografted in mouse assessed as tumor growth inhibition at 200 mg/kg, po administered BID co-treated with pomalidomide relative to control; format: functional; settings: RPMI-8226, po, read-out: TGI
JIMT-1 [10] = experiment: Antitumor activity against human JIMT1 cells xenografted in mouse assessed as tumor growth inhibition at 200 mg/kg, po administered BID relative to control; format: functional; settings: JIMT-1, po, read-out: TGI
NCI-H2122 [11] = experiment: Antitumor activity against human NCI-H2122 cells harboring KRAS mutant xenografted in mouse assessed as tumor growth inhibition co-treated with selumetinib relative to control; format: functional
[12] = Antitumor activity against human CTG-0052 cells xenografted in mouse assessed as tumor growth inhibition at 200 mg/kg, po administered BID relative to control; format: functional; settings: read-out: TGI
JIMT-1 [13] = experiment: Antitumor activity against human JIMT1 cells xenografted in mouse assessed as tumor growth inhibition at 200 mg/kg, po administered BID co-treated with paclitaxel relative to control; format: functional; settings: JIMT-1, po, read-out: TGI
[14] = Inhibition of GAC (unknown origin) by fluorescence labeling-based assay; design: species or system Homo sapiens
JIMT-1 [15] = experiment: Antitumor activity against human JIMT1 cells xenografted in mouse assessed as tumor growth inhibition at 10 mg/kg, po administered every other day for 5 doses relative to control; format: functional; settings: JIMT-1, po, read-out: TGI
RPMI-8226 [16] = experiment: Antitumor activity against human RPMI8226 cells xenografted in mouse assessed as tumor growth inhibition at 1 mg/kg, po administered QD relative to control; format: functional; settings: RPMI-8226, po, read-out: TGI

SMILES: CN(C)c1ccc(C2Nc3ccc4ccccc4c3C3=C2C(=O)CC(C)(C)C3)cc1 (centres undefined)
IC50 [1]: 50 µM

SMILES: CN(C)c1ccc(C2Nc3ccc(C(C)(C)C)cc3C3=C2C(=O)CC(C)(C)C3)cc1Br (centres undefined)
IC50 [14]: 4.5 µM

SMILES: C#Cc1cccc(Nc2ncnc3cc(OCCOC)c(OCCOC)cc23)c1 [ERLOTINIB]
TGI (NCI-H1650 [6]): 66%

SMILES: CC(=O)O[C@H]1C(=O)[C@@]2(C)[C@H]([C@H](OC(=O)c3ccccc3)[C@]3(O)C[C@H](OC(=O)[C@H](O)[C@@H](NC(=O)c4ccccc4)c4ccccc4)C(C)=C1C3(C)C)[C@]1(OC(C)=O)CO[C@@H]1C[C@@H]2O [PACLITAXEL]
inhibition in vivo at 10 mg/kg (JIMT-1 [15]): 73%

SMILES: Nc1cccc2c1C(=O)N(C1CCC(=O)NC1=O)C2=O (centres undefined) [POMALIDOMIDE]
inhibition in vivo at 1 mg/kg (RPMI-8226 [16]): 46%

SMILES: Cn1cnc2c(F)c(Nc3ccc(Br)cc3Cl)c(C(=O)NOCCO)cc21 [SELUMETINIB]
TGI (NCI-H2122 [4]): 49%

Continued, in another order:

IC50 [1]: 9.3 µM
SMILES: CN(C)c1ccc(C2Nc3ccc4ccccc4c3C3=C2C(=O)CC(C)(C)C3)cc1Br (centres undefined)

IC50 [2]: 0.16 µM
IC50 [3]: 3 µM
SMILES: O=C(Cc1ccccc1)Nc1nnc(CCSCCc2nnc(NC(=O)Cc3ccccc3)s2)s1

IC50 [1]: 0.02 µM
SMILES: O=C(Cc1cccc(OC(F)(F)F)c1)Nc1ccc(CCCCc2nnc(NC(=O)Cc3ccccn3)s2)nn1
TGI (NCI-H2122 [4]): 46%
inhibition in vivo at 200 mg/kg (RPMI-8226 [5]): 64%
TGI (NCI-H1650 [6]): 26%
TGI (NCI-H1650 [7]): 89%
IC50 [8]: 0.002 to 0.3 µM
inhibition in vivo at 200 mg/kg (RPMI-8226 [9]): 97%
inhibition in vivo at 200 mg/kg (JIMT-1 [10]): 54%
TGI (NCI-H2122 [11]): 78%
inhibition in vivo at 200 mg/kg [12]: 61%
inhibition in vivo at 200 mg/kg (JIMT-1 [13]): 100%

IC50 [1]: 20 µM
SMILES: CC(C)c1ccc(C2Nc3ccc4ccccc4c3C3=C2C(=O)CC(C)(C)C3)cc1 (centres undefined)

IC50 [14]: 10 µM
SMILES: CC1(C)CC(=O)C2=C(C1)c1c(ccc3ccccc13)NC2c1ccc(C(C)(C)C)cc1 (centres undefined)

IC50 [14]: 1.5 µM
SMILES: CN(C)c1ccc(C2Nc3ccc4cc5ccccc5cc4c3C3=C2C(=O)CC(C)(C)C3)cc1Br (centres undefined)

IC50 [2]: 0.1 µM
SMILES: O=C(Cc1ccccc1)Nc1nnc([C@@H]2CCC[C@@H](c3nnc(NC(=O)Cc4ccccc4)s3)C2)s1 (racemic)
